10 molecules from patent publication EP0353777A2, “New 2,5-disubstituted tetrahydrofuran derivatives” (J. URIACH & CIA. S.A., priority 1988, dated 1990) can be followed below.

Test [1] relates to hypotension induced by PAF. The experiment in a line: Test 2: Inhibition of the hypotensive effect induced by PAF in normotense rats. The test is classed as in vivo. The settings on record: anesthetized male Sprage Dawley rats; compounds given through the femoral vein 3 min. before PAF (0.5 mcg/Kg, i.v.); average arterial pressure. On the procedure:
Test 2 - Inhibition of the hypotensive effect induced by PAF in normotense rats. Male Sprage Dawley rats, of 180-220 g of weight, anesthetized with sodium pentobarbital (50 mg/Kg, i.p. 1 mL/100 g) have been used. In order to measure the average arterial pressure, a polyethylene catheter is introduced into the carotid artery. The arterial pressure is recorded with the help of a transducer connected with a […] Beckman polygraph. […]

Test [2] has as its system platelet aggregation induced by PAF. Kind of test: Test 1: Inhibition of platelet aggregation induced by PAF. The class given is cell-based. To be noted: rabbit platelet rich plasma, aggregation induced by PAF (C₁₈) 16 nM final, Born nephelometric technique, read-out: IC₅₀. On the procedure:
Test 1: Inhibition of platelet aggregation induced by PAF.
The blood is obtained by cardiac puncture of male New Zealand albino rabbits (between 2 and 2.5 Kg of weight) and coagulatlon is prevented by adding 1 part of 3.16% sodium citrate dihydrate in 9 parts of blood. The platelet rich plasma (PRP) is prepared by blood centrifugation at 250xg for 10 min. at 4°C and it is diluted with platelet poor plasma (PPP) obtained by additional centrifugation at 3000xg for 10 min. The amount of platelets is adjusted to […]. The platelet aggregation induced by PAF (C₁₈, prepared in our laboratory) (16 nM, final) is determined by the Born nephelometric technique (J. Physiol., 1962 162, 67) using a aggregometer Chrono-log 500. The activities of the inhibitors are expressed as IC₅₀, that is to say the concentration of the drug needed to inhibit the platelet aggregation in a 50%.

The structures appear in SMILES notation. Read-outs that look alike come from different tables or passages of the source.

On to `CCCCCCCCCCCCCCCCCC1CCC(COC(=O)N(Cc2cccc[n+]2C)C(C)=O)O1` (mixture of isomers) [Compound 5, (±)-cis,trans-2-[N-acetyl-N-[((5-heptadecyl-2-tetrahydrofuranyl)methoxy)carbonyl]aminomethyl]-1-methylpiridinium iodide], for which, in test [1], the CI₅₀ was 0,8 mg/Kg,i.v. In addition, the IC50 in test [2] (Oryctolagus cuniculus) was 1100 nM.
`CCCCCCCCCCCCCCCCCC1CCC(COC(=O)N(Cc2cccc[n+]2CC)C(=O)OCC)O1` (mixture of isomers) [Compound 7, (±)-cis,trans-2-[N-ethoxycarbonyl-N-[((5-heptadecyl-2-tetrahydrofuranyl)methoxy)carbonyl]aminomethyl]-1-ethylpyridinium iodide]: the CI₅₀ in test [1] was 0,34 mg/Kg,i.v. In test [2] (Oryctolagus cuniculus), the IC50 was found to be 130 nM.
For `CCCCCCCCCCCCCCCC1CCC(COC(=O)N(Cc2cccc[n+]2CC)C(C)=O)O1` (mixture of isomers) [Compound 11, (±)-cis,trans-2-[N-acetyl-N-[((5-pentadecyl-2-tetrahydrofuranyl)methoxy)carbonyl]aminomethyl]-1-ethylpyridinium iodide], the CI₅₀ in test [1] is 0,15 mg/Kg,i.v. For the same molecule, the IC50 in test [2] (Oryctolagus cuniculus) turned out to be 95 nM.
With `CCCCCCCCCCCCCCCC1CCC(COC(=O)CCCCC[n+]2ccsc2)O1` (mixture of isomers) [Compound 12, (±)-cis,trans-3-[6-[(5-pentadecyl-2-tetrahydrofuranyl)methoxy]-6-oxohexyl] tiazolium 4-methylbenzenesulfonate], the IC50 in test [2] (Oryctolagus cuniculus) came to 3100 nM.
Still for that read-out and setting: the result for `CCCCCCCCCCCCCCCC1CCC(COCCCCCC[n+]2ccsc2)O1` (mixture of isomers) [Compound 13, (±)-cis,trans-3-[6-[(5-pentadecyl-2-tetrahydrofuranyl)methoxy]hexyl]tiazolium 4-methylbenzenesulfonate] reads 1300 nM.
In the case of `CCCCCCCCCCCCCCCCCNC(=O)OCC1CCC(COC(=O)N(Cc2cccc[n+]2CC)C(C)=O)O1` (mixture of isomers) [Compound 16, (±)-cis,trans-2-[N-acetyl-N-[((5-(((N-heptadecylcarbamoyl)oxy)methyl)-2-tetrahydrofuranyl)methoxy)carbonyl]aminomethyl] -1-ethylpiridinium iodide], the CI₅₀ in test [1] is given as 0,064 mg/Kg,i.v. The IC50 in test [2] (Oryctolagus cuniculus) stood at 40 nM.
The matching figures for `CCCCCCCCCCCCCCCNC(=O)OCC1CCC(COC(=O)N(Cc2cccc[n+]2CC)C(C)=O)O1` (mixture of isomers) [Compound 19, (±)-cis,trans-2-[N-acetyl-N-[((5-(((N-pentadecylcarbamoyl)oxy)methyl)-2-tetrahydrofuranyl)methoxy)carbonyl]aminomethyl] -1-ethylpiridinium iodide]: 0,098 mg/Kg,i.v and 54 nM.
For the molecule `CCCCCCCCCCCCCCCCOCC1CCC(COC(=O)N(Cc2cccc[n+]2CC)C(C)=O)O1` (mixture of isomers) [Compound 25, (±)-cis,trans-2-[N-acetyl-N-[((5-((hexadecyloxy)methyl)-2-tetrahydrofuranyl)methoxy)carbonyl]aminomethyl]-1-ethylpyridinium iodide], the CI₅₀ in test [1] is reported as 0,036 mg/Kg,i.v. In test [2] (Oryctolagus cuniculus), the IC50 was 74 nM.
On to `CCCCCCCCCCCCCCCCC[C@@H]1CC[C@H](COC(=O)N(Cc2cccc[n+]2CC)C(C)=O)O1.[I-]` (racemic) [Compound 3, (±)-cis,trans-2-[N-acetyl-N-[((5-heptadecyl-2-tetrahydrofuranyl)methoxy)carbonyl]aminomethyl]-1-ethylpiridinium iodide], for which, in test [1], the CI₅₀ is recorded as 0,15 mg/Kg,i.v. For the same molecule, the IC50 in test [2] worked out at 71 nM.
Regarding `CCCCCCCCCCCCCCCCC[C@@H]1CC[C@H](COC(=O)N(Cc2cccc[n+]2CC)C(C)=O)O1.[Cl-]` (racemic) [Compound 4, (±)-cis,trans-2-[N-acetyl-N-[((5-heptadecyl-2-tetrahydrofuranyl)methoxy)carbonyl]aminomethyl]-1-ethylpiridinium chloride], the CI₅₀ in test [1] is 0,19 mg/Kg,i.v. Besides, in test [2], the IC50 came out at 190 nM.
